Literature values as cited in patent US20030220374A1, “Compositions and methods of treatment involving peroxisome proliferator-activated receptor-gamma agonists and cyclooxygenase-2 selective inhibitors” (Pharmacia Corporation, priority 2002, published 2003).
pEC50: −log10 of the molar value.

Legend:
[1] = test system: vascular smooth muscle cell
[2] = test system: human carotid arteries; conditions: in vivo
[3] = test system: human lung cancer cells; conditions: through the induction of apoptosis
[4] = test system: hepatocellular cancer cells
[5] = biological target: T1, PPARγ (Homo sapiens, UniProt P37231)
T1 sequence (P37231 1-505): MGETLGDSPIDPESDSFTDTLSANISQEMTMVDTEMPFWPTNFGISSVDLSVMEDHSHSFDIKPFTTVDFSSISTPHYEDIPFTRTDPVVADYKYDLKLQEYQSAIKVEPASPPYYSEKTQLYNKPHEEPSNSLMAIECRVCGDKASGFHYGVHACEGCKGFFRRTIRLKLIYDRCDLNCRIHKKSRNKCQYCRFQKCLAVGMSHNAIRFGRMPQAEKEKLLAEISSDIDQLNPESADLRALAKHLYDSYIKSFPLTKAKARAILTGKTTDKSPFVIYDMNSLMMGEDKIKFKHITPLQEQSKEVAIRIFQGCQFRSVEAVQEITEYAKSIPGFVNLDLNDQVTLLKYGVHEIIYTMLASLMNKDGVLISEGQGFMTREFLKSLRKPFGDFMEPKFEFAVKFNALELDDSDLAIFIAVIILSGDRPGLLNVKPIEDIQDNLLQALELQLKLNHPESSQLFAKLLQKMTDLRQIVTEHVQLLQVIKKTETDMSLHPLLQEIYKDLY

[6] = test system: fibroblast growth factor-induced corneal angiogenesis; conditions: rats

In the case of `Cc1c(C)c2c(c(C)c1O)CCC(C)(COc1ccc(CC3SC(=O)NC3=O)cc1)O2` (single isomer, unassigned; (+)) [Troglitazone, (+)-5-[[4-[(3,4-dihydro-6-hydroxy-2,5,7,8-tetramethyl-2H-1-benzopyran-2-yl)methoxy]phenyl]methyl]-2,4-thiazolidinedione], the “vascular smooth muscle cell growth” value [1] is listed as “inhibits”, the “hyperplasia of human carotid arteries” value [2] is listed as “decreases” and the “growth of human lung cancer cells” value [3] is listed as “inhibited the growth”. For the same compound, the “growth inhibition of hepatocellular cancer cells” value [4] was “marked growth inhibition”.

In the case of `CCCCC/C=C\C=C1\C(=O)C=C[C@@H]1C/C=C\CCCC(=O)O` [15-deoxy-Δ^12,14-prostaglandin J2, 11-oxo-prosta-5Z,9,12E,14Z-tetren-1-oic acid], the “growth inhibition of hepatocellular cancer cells” value [4] is listed as “marked growth inhibition”.

In the case of `COc1ccc2nc(COc3ccc(CC4SC(=O)NC4=O)cc3)n(C)c2c1` (stereo not shown) [CS-011, CI-1037], the pEC50 [5] is given as 6.80.

In the case of `Cc1ccc(-c2cc(C(F)(F)F)nn2-c2ccc(S(N)(=O)=O)cc2)cc1` [Celecoxib, 4-[5-(4-methylphenyl)-3-(trifluoromethyl)-1H-pyrazol-1-yl]benzenesulfonamide], the “inhibition of fibroblast growth factor-induced corneal angiogenesis” value [6] is given as “potent inhibition”.
